In assay [1] the target is T1, human CB1 (Homo sapiens (Human), UniProt P21554). In words: In vitro cannabinoid receptor activity assay (calcium mobilization, FLIPR) in CHO cells expressing human CB1 and Gαq16. The class given is cell-based. The following applies: for EC50: CHO cells, hCB1, calcium fluorescence, read-out: hCB1 Ca EC50; for hCB1 Ca Span: percentage of the maximum CP55940 signal. How it is done:
(§1) In vitro cannabinoid receptor activity assay. Chinese Hamster Ovary (CHO) cells stably expressing either human CB1 or CB2 cDNA and the promiscuous G-protein Gαq16 were transferred to each well of a black Costar 96-well optical bottom plate (Corning Corporation). Each plate was incubated at 37° C. for 24 hr to confluence. The culture media was removed from the plates and cells were subsequently loaded with a fluorescent calcium probe (Calcium 5 dye, Molecular Devices) at a final loading concentration of 2 μM in a HBSS-based buffer containing 20 mM HEPES, 1% BSA and 10 μM Probenecid (Sigma) in a total volume of 225 μl. Cells were incubated at 37° C. for 1 hr and then stimulated with various concentrations of a test agent using a FLIPR Tetra plate-reader, which automatically added the agonist at 10× concentration to each well after reading baseline values for ˜17 sec. Agonist-mediated change in fluorescence (488 nm excitation, 525 nm emission) was monitored in each well at 1 sec intervals for 60 sec and reported for each well. Data were analyzed using Prism software (GraphPad). Non-linear regression analysis was performed to fit data and obtain maximum response (Emax), effective concentration for 50% response (EC50), correlation coefficient (r2) and other parameters. All experiments were performed 3-6 times to ensure reproducibility.
(§2) Reference is made to the following reference, hereby incorporated by reference with regard to such assay, Seltzman, et al., Peripherally Selective Cannabinoid 1 Receptor (CB1R) Agonists for the Treatment of Neuropathic Pain, J Med Chem. 2016 Aug. 25; 59 (16):7525-43. doi: 10.1021/acs.jmedchem.6b00516. Epub 2016 Aug. 10.
Background: Calcium flux is commonly read through the fluorescence of an indicator in the cells.

Assay [2] addresses T2, human CB2 (Homo sapiens (Human), UniProt P34972). In words: In vitro cannabinoid receptor activity assay (calcium mobilization, FLIPR) in CHO cells expressing human CB2 and Gαq16. The class given is cell-based. The following applies: for EC50: CHO cells, hCB2, calcium fluorescence, read-out: hCB2 Ca EC50; for hCB2 Ca Span: percentage of the maximum CP55940 signal. The protocol: as §1, §2

Assay [3] addresses T1, human CB1. The experiment in a line: In vitro binding affinity, [3H]CP-55,940 radioligand displacement, HEK cell membranes overexpressing human CB1. The following applies: [3H]CP-55,940 displacement, read-out: hCB1 Ki. The protocol:
(§3) In vitro binding affinity determination using radioligand displacement. Plasma membranes were isolated from HEK cells overexpressing either human CB1 or CB2. Binding was initiated with the addition of 40 μg of cell membrane proteins to assay tubes containing [3H]CP-55,940 (ca. 130 Ci/mmol), a test compound (for displacement studies), and a sufficient quantity of buffer (50 mM Tris-HCl, 1 mM EDTA, 3 mM MgCl2, 5 mg/mL BSA, pH 7.4) to bring the total incubation volume to 0.5 mL. Nonspecific binding was determined by the inclusion of 10 μM unlabeled CP-55,940. Following incubation at 30° C. for 1 h, binding was terminated by vacuum filtration through GF/C glass fiber filter plates. The filter plates were washed extensively and air-dried and sealed on the bottom. Liquid scintillate was added to the wells and the top sealed. After incubating the plates in cocktail for at least 2 h, the radioactivity present was determined by liquid scintillation spectrometry. Assays were done in duplicate, and results represent combined data from 3-6 experiments. Saturation and displacement data were analyzed by unweighted nonlinear regression of receptor binding data. For displacement studies, curve-fitting and IC50 calculation were done with GraphPad Prism (GraphPad Software, Inc., San Diego, CA).
(§4) Reference is made to the following reference, hereby incorporated by reference with regard to such assay, Zhang et al., Synthesis and biological evaluation of bivalent ligands for the cannabinoid 1 receptor, J Med Chem. 2010 Oct. 14; 53 (19):7048-60. doi: 10.1021/jm1006676.
(In general: In a radioligand displacement assay an active substance lowers the binding of a labelled ligand.)

The target of assay [4] is T2, human CB2. In words: In vitro binding affinity, [3H]CP-55,940 radioligand displacement, HEK cell membranes overexpressing human CB2. The note with it: [3H]CP-55,940 displacement, read-out: hCB2 Ki. The protocol:
as §3, §4

Broadly, the EC50 is the concentration at which the effect is half-maximal. For orientation: Ki means the equilibrium dissociation constant of an inhibitor or competing ligand from its target.

For the molecule `C[C@H](NC(=O)c1nn(Cc2ccc(F)cc2)c2ccccc12)c1cccc(C(N)=O)c1` [Example 11, N-[(1S)-1-(3-Carbamoylphenyl)ethyl]-1-[(4-fluorophenyl)methyl]-1H-indazole-3-carboxamide], the EC50 in assay [1] is 27 nM; in assay [2] it was 50 nM. In assay [1], the “hCB1 Ca Span” value worked out at 86%. The “hCB2 Ca Span” value in assay [2] turned out to be 48%. The values for the Ki in assay [3] and in assay [4] were 7 nM and 34 nM, respectively.
Turning to `CC(C)(NC(=O)c1nn(Cc2ccc(F)cc2)c2ccccc12)c1cccc(C(N)=O)c1` [Example 12, N-[2-(3-Carbamoylphenyl)propan-2-yl]-1-[(4-fluorophenyl)methyl]-1H-indazole-3-carboxamide], in assay [1], the EC50 turned out to be 21 nM and the “hCB1 Ca Span” value came out at 24%. Besides, in assay [2], the EC50 stood at 27 nM and the “hCB2 Ca Span” value worked out at 41%. For the same molecule, the Ki in assay [3] was 4 nM. The Ki in assay [4] was 10 nM.
For the molecule `CC(C)(NC(=O)c1nn(Cc2ccc(F)cc2F)c2ccccc12)c1cccc(C(N)=O)c1` [Example 13, N-[2-(3-Carbamoylphenyl)propan-2-yl]-1-[(2,4-difluorophenyl)methyl]-1H-indazole-3-carboxamide], in assay [1], the EC50 worked out at 180 nM and the “hCB1 Ca Span” value is on record as 32%. In assay [2], the EC50 is 300 nM and the “hCB2 Ca Span” value worked out at 19%. Also, the Ki in assay [3] was found to be 18 nM. The Ki in assay [4] came to 27 nM.
As for `CC(C)(NC(=O)c1nn(Cc2ccc(F)cc2)c2ccccc12)C1CCCN(CC(N)=O)C1` (stereo not drawn) [Example 30, N-{2-[1-(Carbamoylmethyl)piperidin-3-yl]propan-2-yl}-1-[(4-fluorophenyl)methyl]-1H-indazole-3-carboxamide], the concentration giving a half-maximal response (EC50) is 330 nM in assay [1] and 63 nM in assay [2]. In assay [1], the “hCB1 Ca Span” value was 40%. Also, the “hCB2 Ca Span” value in assay [2] was determined as 12%. Further, the Ki stood at 48 nM in assay [3] and 21 nM in assay [4].

For the origin of these results see US20230339863A1, “INDAZOLE DERIVATIVES AS CANNABINOID RECEPTOR PARTIAL AGONISTS” (RESEARCH TRIANGLE INSTITUTE, priority 2020, published 2023).
